Consider 7 compounds from patent publication US9827216B2, “Nutritional support to prevent and/or mitigate bone marrow toxicity from a cancerous tumor” (Nestec S.A., priority 2008, dated 2017).

Data set [1] relates to tongue and/or esophageal tumors. Briefly: Carcinogen induction of tongue and/or esophageal tumors. It counts as in vivo, CB6F1-Tg rasH2@Jcl mice. As to conditions: carcinogen-induced. The text has this: Male CB6F1-Tg rasH2@Jcl mice (Tg) at 8 weeks of age are obtained and maintained in plastic cages. They are all allowed free access to a powdered basal diet of CRF (Charles River Formula)-1. A carcinogen, 4-nitroquinoline 1-oxide is used to induce tongue and/or esophageal tumors in this study.

The test system of data set [2] is γδ T cells. To be noted: acid hydrolysed, diluted in media; peripheral blood mononuclear cells; (5%-75%); cited from earlier work.
The subject of data set [3] is red blood cell, white blood cell and immune cell populations. Put plainly: Haematological evaluation and flow cytometric analysis, test diets with chemotherapy (Example 2). In kind it is in vivo, mice. As to conditions: for Global lymphocyte population: following chemotherapy, supplemented diets. As for the experimental part: (§1) The animals were distributed into 7 different group diets. There was a control group that received the diet AIN 93 for adult rodents (maintenance). Test diets were administered in doses appropriate to the animal model: (a) Ctrl diet were supplemented with 1% (w/w) L-arginine, (b) 25% of the protein was replaced by glutamine, (c) 1% (w/w) L-citrulline, (d) 1 g/Kg body weight with active hexose correlated compound, (e) 20 mg/day of RNA nucleotides and (f) 25 mg/day of lactoferrin. […] Control animals without chemotherapeutic treatment were run in parallel for all tested diets. Body weight was assessed every two days. Blood samples were obtained at day 2, 4 and 10 after the chemo-treatment and at sacrifice (14 or 28 days). An autopsy was performed and tumor mass was assessed.
(In general: In flow cytometry, cells or beads pass a laser one at a time.)

The subject of data set [4] is MCA-OVA 1×10^6 tumor cells. Briefly: Tumor growth evaluation, test diets with or without chemotherapy (Example 2). It counts as in vivo, mice. As for the experimental part:
The animals were distributed into 7 different group diets. There was a control group that received the diet AIN 93 for adult rodents (maintenance). […] Control animals without chemotherapeutic treatment were run in parallel for all tested diets. Body weight was assessed every two days. Blood samples were obtained at day 2, 4 and 10 after the chemo-treatment and at sacrifice (14 or 28 days). An autopsy was performed and tumor mass was assessed.
Methylcholanthrene (MCA) induced sarcoma cell line expressing the exogenous antigen ovalbumin (OVA) was grown in DMEM or RPMI 1640 supplemented with 2 mM L-glutamine, 10 mM HEPES, 20 μM 2-mercaptoethanol, 150 U/mL streptomycin, 200 U/mL penicillin, and 10% heat-inactivated FBS. 1×10^6 tumor cells were injected in the flank of the mice 6 days prior to the chemotherapy.
Growth of tumors was monitored every 2 d by using calipers, and tumor volume was calculated by using the formula length×width×width×0.52 mm^3.

Data set [5] concerns immune cells. Put plainly: Nutritional intervention on immune cells in tumor burdened animals with and without chemotherapy (FIG. 11). In kind it is in vivo. As to conditions: during the second phase (tumor-induced toxicity). The text has this: FIG. 11 illustrates a graph of the effect of nutritional intervention on immune cells in tumor burdened animals with and without chemotherapy in accordance with an embodiment of the present disclosure.

Data set [6] concerns red blood cell, white blood cell and immune cell populations. Briefly: Haematological evaluation and flow cytometric analysis of tumor-bearing mice after chemotherapy (Example 1). In kind it is in vivo. As to conditions: after the chemotherapy.
Data set [7] is described as follows: Body weight of tumor-bearing mice on test diets with chemotherapy (Example 2). It counts as in vivo. As to conditions: maximal dose (10 mg/kg). As for the experimental part:
as §1

A short description of data set [8]: Body weight of tumor-bearing mice after chemotherapy (Example 1). To be noted: maximal dose (10 mg/kg), of the initial body weight.
Experimental: Inbred eight-week-old C57BL/6 (H-2b) mice were used in the experiments. Mice were inoculated subcutaneously (s.c.) on the left flank with 1×10^6 tumor cells, and tumor growth was monitored every 2 days by caliper measurement. 6 days after the tumor inoculation the animals were treated either with oxaliplatin or doxorubicin. Tumor growth was monitored every two days after the chemotherapeutic treatment and they were sacrificed after two weeks of tumor implantation. Some experiments were carried out until 28 days post-chemo to better assess tumor growth.
Body weight was assessed every two days until sacrifice.
Data set [9] deals with NK cell. As to conditions: about 750 mg per day for two weeks, cited from earlier work.

Regarding `O=[N+]([O-])c1cc[n+]([O-])c2ccccc12` [4-nitroquinoline 1-oxide], in data set [1], the “mice developing tumors in the esophagus” value worked out at 60% and the “mice developing tumors on the tongue” value came to 100%.
For the compound `CCNC(=O)CC[C@H](N)C(=O)O` [L-theanine], in [2], the “expansion of γδ T cells” value is 15 fold.
Regarding `N=C(N)NCCC[C@H](N)C(=O)O` [arginine, L-arginine], the “loss of CD3+ cells” value in [3] (around 10 days post-chemotherapy, supplemented diet) is on record as “partially modulated”. For the same compound, the “fall of erythrocytes after chemotherapy” value in data set [3] (diet supplemented 1% (w/w), between days 6 and 10 post-chemo, vs control diet and other treatments (FIG. 3)) is “prevented the marked fall of erythrocytes”. For the same compound, the tumor size entry in data set [4] (combination with the chemotherapy treatment vs chemotherapy alone (FIG. 4)) is listed as “further reduced the tumor size”. In data set [4] (supplemented diet compared to other groups), the “progression of the implanted tumor” value was “delayed progression”. Moreover, in [5], the “immune cell population / concentration” value is “increase immune cell concentration”.
In the case of `NC(=O)NCCC[C@H](N)C(=O)O` [citrulline, L-citrulline], the Global lymphocyte population entry in data set [3] is listed as “less depressed”.
Same read-out and setting: next, `NC(=O)CC[C@H](N)C(=O)O` [glutamine]: “less depressed”.
On to `O=C1[O][Pt]2([NH][C@@H]3CCCC[C@H]3[NH]2)[O]C1=O` [oxaliplatin], for which the “white blood cell counts” value in data set [6] was “leukocyte counts that were higher that the baseline counts”. The Maximal weight loss result in [7] and in data set [8] was “around 15%” each time.
As for vitamin E, the NKG2D expression result in data set [9] (all patients studied) was “small but consistent induction”. For the same compound, the “NK cell cytolytic activity” value in data set [9] (cancer patients) is “significantly improved”.
